Assay results published in PMC3038857, “Using Nuclear Receptor Activity to Stratify Hepatocarcinogens” (PLoS ONE, 2011).
Like-named read-outs stand apart in the source and are kept apart here.

Key:
[1] = tested on: HMGCS2; test: CLZD_HMGCS2: Change in expression of HMGCS2 (primary human hepatocytes); assay type: cell-based; conditions: 24 hr, scale not given, looks like -log10 of molar active concentration, 0 = no activity
Description: This is a collection of multiplexed gene expression assays focused on Phase I and II xenobiotic metabolizing enzymes and transporters. Human primary cell cultures were treated with chemicals at 5 concentrations (0.004-40 [drawing 42] M) for 6, 24 and 48 hr. Concentration- and time-response profiles of chemicals were measured by the expression of key nuclear receptor target genes, activities of CYP1A enzymes (EROD), and cell morphology. Fourteen gene targets were monitored by quantitative nuclease protection assay including: six representative cytochrome P-450 genes, four hepatic transporters, three Phase II conjugating enzymes, and one endogenous metabolism gene involved in cholesterol synthesis. The target genes associated with nuclear receptor pathways are as follows: [drawing 43] and [drawing 44] with [drawing 45]; [drawing 46] , [drawing 47] , [drawing 48] , [drawing 49] , [drawing 50] and [drawing 51] with [drawing 52]; [drawing 53] , [drawing 54] , [drawing 55] and [drawing 56] with [drawing 57]; [drawing 58] with [drawing 59]; and [drawing 60] with [drawing 61] . Assays were run in primary human hepatocyte cultures by CellzDirect Invitrogen Inc. (Durham, NC), in collaboration with EPA.
Multiplexed Gene Expression in Human Primary Hepatocytes: This is a collection of multiplexed gene expression assays focused on Phase I and II metabolic enzymes and transporters. […] Fourteen gene targets were monitored by quantitative nuclease protection assay: six representative cytochrome P450 genes, four hepatic transporters, three Phase II conjugating enzymes, and one endogenous metabolism gene involved in cholesterol synthesis. Cells were exposed at 5 concentrations (0.004-40 µM) for 6, 24 or 48 hr. Gene targets are sentinels for five nuclear receptor signaling pathways: AhR, CAR, PXR, FXR, and PPARα. All gene are associated with nuclear receptor pathways: CYP1A1 and CYP1A2 with AHR; ABCB1, ABCG2, CYP2B6, CYP2C9, CYP2C19 and UGT1A1 with CAR; CYP3A4, GSTA2, SLCO1B1 and SULT2A1 with PXR; HMGCS2 with PPARA; and ABCB11 with FXR. […] Detailed description of the methods, data and analysis methods for this dataset will be presented in a separate publication.

[2] = tested on: CYP3A4; test: CLZD_CYP3A4: Change in expression of CYP3A4 (primary human hepatocytes); assay type: cell-based; conditions: 24 hr
Method in brief: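 Chemicals are tested in human hepatocyte primary cultures over 0.004-40 µM (5 concentrations) for 6, 24 or 48 hr, and concentration- and time-dependent transcript changes are read by quantitative nuclease protection assay.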

[3] = molecular target: T1, PPARa (PPARA) (Homo sapiens, UniProt Q07869); test: NVS_NR_hPPARa: Human PPARa Fluormone Pan-PPAR green (cell-free HTS); assay type: binding; conditions: scale not given, looks like -log10 of molar active concentration, 0 = no activity
T1 sequence (Q07869 1-468): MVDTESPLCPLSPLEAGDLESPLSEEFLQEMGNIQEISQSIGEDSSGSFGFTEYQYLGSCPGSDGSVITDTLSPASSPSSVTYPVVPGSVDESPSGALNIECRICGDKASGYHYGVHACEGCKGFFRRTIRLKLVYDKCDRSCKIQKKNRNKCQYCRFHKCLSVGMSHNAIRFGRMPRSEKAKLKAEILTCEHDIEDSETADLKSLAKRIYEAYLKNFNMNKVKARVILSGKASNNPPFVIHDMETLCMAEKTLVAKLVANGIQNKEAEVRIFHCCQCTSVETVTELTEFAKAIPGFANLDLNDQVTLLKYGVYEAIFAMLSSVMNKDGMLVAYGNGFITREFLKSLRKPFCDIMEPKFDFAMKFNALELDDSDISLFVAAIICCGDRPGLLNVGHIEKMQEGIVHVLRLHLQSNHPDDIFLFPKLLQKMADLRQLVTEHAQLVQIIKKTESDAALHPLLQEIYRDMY
Text: (§1) These are a collection of biochemical assays measuring binding constants and enzyme inhibition values. Chemicals were initially screened at a single concentration in duplicate wells at a concentration of 10 [drawing 63] M for cytochrome P-450 assays and 25 [drawing 64] M for all others. […] These assays were run by Caliper Life Sciences (Hanover, MD) under contract to EPA. Short assay descriptions are available at: http://www.caliperls.com/products/contract-research/in-vitro/.
(§2) Cell-free HTS Assays: A collection of biochemical assays measuring binding constants and enzyme inhibition values. […] These assays were run by Caliper Life Sciences (Hanover, MD) under contract to EPA. Short assay descriptions are available at http://www.caliperls.com/products/contract-research/in-vitro/. Values for all endpoints were imported into GeneData Screener (Basel, Switzerland) and normalised to solvent controls from the same plate as the tested compounds and expressed as percent of neutral control. Concentration-response curves were fit in GeneData Screener (Basel, Switzerland) Condeseo module using the Hill equation and AC50 values were determined. […] Detailed description of the methods, data and analysis methods for this dataset are described in a separate publication.

[4] = molecular target: T2, ERa (ESR1) (Homo sapiens, UniProt P03372); test: NCGC_ERalpha_Antagonist: GAL4 BLAM Reporter gene assay: ERa; assay type: cell-based; conditions: antagonist mode; scale not given, looks like -log10 of molar active concentration; 0 = no activity
T2 construct: expressed in transfected cells; host or cells: HEK293

[5] = molecular target: T3, PPARg (PPARG) (Homo sapiens, UniProt P37231); test: NVS_NR_hPPARg: Human PPARg Fluorescent Ligand (cell-free HTS); assay type: binding
T3 sequence (P37231 1-505): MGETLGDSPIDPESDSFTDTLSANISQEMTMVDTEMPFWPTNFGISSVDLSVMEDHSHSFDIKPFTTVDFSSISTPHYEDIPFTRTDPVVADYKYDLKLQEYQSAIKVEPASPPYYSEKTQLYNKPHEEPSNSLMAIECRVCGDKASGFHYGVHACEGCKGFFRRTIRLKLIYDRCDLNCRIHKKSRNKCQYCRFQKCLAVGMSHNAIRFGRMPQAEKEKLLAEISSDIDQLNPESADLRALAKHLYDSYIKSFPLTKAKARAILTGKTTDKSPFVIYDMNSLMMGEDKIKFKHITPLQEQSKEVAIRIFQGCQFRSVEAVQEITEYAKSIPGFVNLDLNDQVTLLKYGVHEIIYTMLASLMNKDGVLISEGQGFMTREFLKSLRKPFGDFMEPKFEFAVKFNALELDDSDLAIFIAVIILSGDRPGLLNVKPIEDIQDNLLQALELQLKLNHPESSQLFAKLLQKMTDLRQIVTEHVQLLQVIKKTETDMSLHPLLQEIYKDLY
Text: as §1, §2

[6] = scale not given, looks like -log10 of molar active concentration, 0 = no activity

T2 sequence (P03372 whole entry, the tested form may be a part): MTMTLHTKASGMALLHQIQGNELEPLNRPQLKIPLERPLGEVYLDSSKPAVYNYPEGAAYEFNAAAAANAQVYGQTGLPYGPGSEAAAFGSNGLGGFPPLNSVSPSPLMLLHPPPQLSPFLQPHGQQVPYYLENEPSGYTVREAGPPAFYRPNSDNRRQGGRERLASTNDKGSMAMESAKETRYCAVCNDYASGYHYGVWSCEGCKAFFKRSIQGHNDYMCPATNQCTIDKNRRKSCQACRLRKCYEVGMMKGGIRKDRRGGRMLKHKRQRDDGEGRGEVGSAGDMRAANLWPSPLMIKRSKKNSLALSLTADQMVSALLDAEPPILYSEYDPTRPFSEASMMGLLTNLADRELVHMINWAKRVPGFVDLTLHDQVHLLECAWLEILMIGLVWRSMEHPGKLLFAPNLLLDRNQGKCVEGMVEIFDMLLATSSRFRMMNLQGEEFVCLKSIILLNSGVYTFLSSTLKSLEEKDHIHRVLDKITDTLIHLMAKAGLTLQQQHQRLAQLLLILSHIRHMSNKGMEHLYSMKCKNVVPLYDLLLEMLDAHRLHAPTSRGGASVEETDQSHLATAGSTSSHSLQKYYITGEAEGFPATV

Row | Compound | CLZD_HMGCS2_24 [1] | CLZD_CYP3A4_24 [2, 6] | NVS_NR_hPPARa [3] | NCGC_ERalpha_Antagonist [4] | NVS_NR_hPPARg [5, 6] | CLZD_CYP3A4_24 [2] | NVS_NR_hPPARg [5]
1 | COC(=O)c1ccccc1CS(=O)(=O)NC(=O)Nc1nc(OC)cc(OC)n1 [r33] | 0 | 0 | 0 | 0 | 0 |  | 
2 | CC(C)N1C(=O)c2ccccc2NS1(=O)=O [r37] | 0 | 0 | 0 | 0 | 0 |  | 
3 | COc1ccc(-c2ccccc2)cc1NNC(=O)OC(C)C [r38] | 0 | 0 | 0 | 4.31 | 0 |  | 
4 | Cc1c(COC(=O)C2C(/C=C(\Cl)C(F)(F)F)C2(C)C)cccc1-c1ccccc1 (stereo not shown) [r39] | 0 | 4.923 | 0 | 0 | 0 |  | 
5 | CC(C)(c1ccc(O)cc1)c1ccc(O)cc1 [r40] | 0 | 0 | 0 | 4.77 | 0 |  | 
6 | OB(O)O [r41] | 0 |  | 0 | 0 | 0 |  | 
7 | O=C(Nc1ccccc1-c1ccc(Cl)cc1)c1cccnc1Cl [r42] | 0 | 4.98 | 0 | 0 | 0 |  | 
8 | CCC(C)n1c(=O)[nH]c(C)c(Br)c1=O (stereo not shown) [r43] | 0 | 5.055 | 0 | 0 | 0 |  | 
9 | N#Cc1cc(Br)c(O)c(Br)c1 [r44] | 0 | 0 | 0 | 0 | 0 |  | 
10 | CC(C)N1C(=O)N(c2ccccc2)CS/C1=N\C(C)(C)C [r45] | 0 | 4.966 | 0 | 0 | 0 |  | 
11 | CCCCOCN(C(=O)CCl)c1c(CC)cccc1CC [r46] | 0 | 0 | 0 | 0 | 0 |  | 
12 | C=CCOC(=O)C(C)(C)OC(=O)c1cc(-n2c(=O)cc(C(F)(F)F)n(C)c2=O)ccc1Cl [r47] | 0 |  | 0 | 0 | 0 |  | 
13 | CCC(C)Nc1c([N+](=O)[O-])cc(C(C)(C)C)cc1[N+](=O)[O-] (stereo not shown) [r48] | 0 | 5.288 | 0 | 0 | 0 |  | 
14 | CCSC(=O)N(CC(C)C)CC(C)C [r49] | 0 | 0 | 0 | 0 | 0 |  | 
15 | O=C1C2CC=CCC2C(=O)N1SC(Cl)(Cl)Cl (stereo not shown) [r51] | 0 | 0 | 0 | 0 | 0 |  | 
16 | CNC(=O)Oc1cccc2ccccc12 [r52] | 0 |  | 0 | 0 |  |  | 
17 | Cc1ccccc1CO[C@@H]1C[C@@]2(C(C)C)CC[C@]1(C)O2 [r64] | 0 | 5.116 | 0 |  | 0 |  | 
18 | C#CCC1=C(C)[C@H](OC(=O)[C@H]2[C@H](C=C(C)C)C2(C)C)CC1=O [r249] |  |  |  |  |  | 5.185 | 
19 | CCCN(CCC)c1c([N+](=O)[O-])cc(C(F)(F)F)c(N)c1[N+](=O)[O-] [r252] |  |  |  |  |  | 5.248 | 
20 | CSc1nc(NC(C)C)nc(NC(C)C)n1 [r256] |  |  |  |  |  | 5.143 | 
21 | CCCC1COC(Cn2cncn2)(c2ccc(Cl)cc2Cl)O1 (stereo not shown) [r262] |  |  |  |  |  | 6.273 | 
22 | CC(C)=CC1C(C(=O)OCc2coc(Cc3ccccc3)c2)C1(C)C (stereo not shown) [r280] |  |  |  |  |  |  | 4.616
23 | CCc1ccc(C(=O)NN(C(=O)c2cc(C)cc(C)c2)C(C)(C)C)cc1 [r290] |  |  |  |  |  | 5.287 | 
24 | CCc1nn(C)c(C(=O)NCc2ccc(C(C)(C)C)cc2)c1Cl [r291] |  |  |  |  |  | 5.218 | 
25 | COc1cccc(C(=O)NN(C(=O)c2cc(C)cc(C)c2)C(C)(C)C)c1C [row 202] |  |  |  |  |  | 5.142 | 
26 | CCc1cccc(C)c1N(C(=O)CCl)C(C)COC (stereo not shown) [row 208] |  |  |  |  |  | 4.911 | 
27 | CCN(CC)C(=O)C(C)Oc1cccc2ccccc12 (stereo not shown) [row 219] |  |  |  |  |  | 4.548 | 
28 | CC(C)Oc1cc(-n2nc(C(C)(C)C)oc2=O)c(Cl)cc1Cl [row 225] |  |  |  |  |  | 6.246 | 
